Reference: US9023789B2, “Amylin analogs and pharmaceutical compositions thereof” (Novo Nordisk A/S, priority 2012, dated 2015)
≈ marks a conversion by molar mass, not a printed value. Where two headings read alike, the source gives them in different places. Numbered stars: 1 amine (or outer) side, 2 acyl side, 3 side chain; on linkers, the order of the positions; unused ones are H or OH. Bridge positions count the residues as written; N and C are the ends. Side chains are listed from the residue outwards. Peptide text beside a SMILES is read from it. * marks the point of attachment. C20 diacid = O=C(O)CCCCCCCCCCCCCCCCCCC(=O)*; γGlu = O=C(O)[C@H](CCC(=O)[*:2])N[*:1]

Experiments:
[1] = target: T1, rat amylin receptor (rat calcitonin receptor + rat RAMP 3) (Rattus norvegicus, UniProt P32214+Q9JJ73); assay: ASSAY (VI) binding to the rat amylin receptor; conditions: for IC50: binding to rat amylin receptor, read-out: rAmylin-R bind IC50
T1 construct: expressed in transfected cells; host or cells: BHK tk'ts 13 (transient, FuGENE 6), membranes
T1 sequence (P32214 25-479 isoform P32214-2 limits assumed): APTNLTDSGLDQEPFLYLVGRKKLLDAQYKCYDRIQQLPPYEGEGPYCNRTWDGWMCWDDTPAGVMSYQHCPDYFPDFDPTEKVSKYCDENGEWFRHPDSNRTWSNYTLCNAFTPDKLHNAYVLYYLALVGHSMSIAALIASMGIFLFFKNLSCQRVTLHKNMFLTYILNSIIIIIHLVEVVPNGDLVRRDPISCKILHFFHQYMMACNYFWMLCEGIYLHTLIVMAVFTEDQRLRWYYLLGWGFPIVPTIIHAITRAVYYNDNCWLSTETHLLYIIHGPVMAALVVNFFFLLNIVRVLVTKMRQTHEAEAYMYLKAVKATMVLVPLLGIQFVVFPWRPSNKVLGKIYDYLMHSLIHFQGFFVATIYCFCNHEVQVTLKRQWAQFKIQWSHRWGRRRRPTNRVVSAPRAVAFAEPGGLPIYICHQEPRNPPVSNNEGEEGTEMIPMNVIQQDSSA
T1 sequence (Q9JJ73 23-147 partner): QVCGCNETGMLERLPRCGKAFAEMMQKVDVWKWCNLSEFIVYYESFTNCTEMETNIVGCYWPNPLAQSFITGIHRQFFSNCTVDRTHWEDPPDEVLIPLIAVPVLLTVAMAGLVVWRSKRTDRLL
In short: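 The cell-membrane assay assessed binding at the rat amylin receptor. BHK tk′ts 13 cells were transfected transiently with rat calcitonin receptor, with FuGENE® 6 (Roche) as the transfection reagent, used per the manufacturer's recommendations. Approximately 48 hours after transfection the cells were harvested, and membranes were prepared for measuring binding.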

[2] = target: T2, human amylin receptor (membranes from Amylin 3(a)/CRE-luc cells) (Homo sapiens, UniProt O60896+P30988); assay: ASSAY (V) binding to the human amylin receptor (SPA, 125I-rat amylin);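 note: competition binding of cell membranes (35 ng/µL) mixed with SPA beads in 384-well plates at 40 µL total volume, read by scintillation counting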
T2 construct: expressed in transfected cells
T2 sequence (P30988 25-474): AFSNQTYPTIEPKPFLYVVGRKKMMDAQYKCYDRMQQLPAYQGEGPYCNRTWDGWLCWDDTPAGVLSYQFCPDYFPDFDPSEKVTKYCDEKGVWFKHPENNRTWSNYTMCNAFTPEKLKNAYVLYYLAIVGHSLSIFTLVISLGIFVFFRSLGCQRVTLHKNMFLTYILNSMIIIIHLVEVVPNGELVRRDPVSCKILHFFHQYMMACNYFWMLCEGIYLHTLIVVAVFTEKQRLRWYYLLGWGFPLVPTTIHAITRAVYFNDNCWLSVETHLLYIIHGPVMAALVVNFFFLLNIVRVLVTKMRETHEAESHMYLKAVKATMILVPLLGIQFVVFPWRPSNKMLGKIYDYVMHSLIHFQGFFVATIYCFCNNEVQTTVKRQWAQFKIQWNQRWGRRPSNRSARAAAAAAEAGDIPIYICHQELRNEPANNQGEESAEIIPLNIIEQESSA
T2 sequence (O60896 24-148 partner): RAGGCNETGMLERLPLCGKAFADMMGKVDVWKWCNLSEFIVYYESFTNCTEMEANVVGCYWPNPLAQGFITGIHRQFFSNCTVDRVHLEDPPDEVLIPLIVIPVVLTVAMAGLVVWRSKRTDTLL

rat calcitonin receptor = target: T3, rat calcitonin receptor (Rattus norvegicus, UniProt P32214); assay: ASSAY (VIII) binding to the rat calcitonin receptor; conditions: Table 7, read-out: rCTR bind IC50
T3 construct: expressed in transfected cells; host or cells: BHK tk'ts 13 (transient, FuGENE 6), membranes
T3 sequence (P32214 25-479 isoform P32214-2 limits assumed): T1 sequence (P32214 25-479 isoform P32214-2 limits assumed)
In short: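 BHK tk′ts 13 cells, transient rat calcitonin receptor transfection; DMEM + 10% FBS; harvest ~48 h post-transfection; membrane prep.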

[3] = ASSAY (IV) determination of solubility; format: physicochemical
In short: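 Solubility measured by UPLC of supernatant after centrifugation, following 18 h at room temperature. Peptide ([…] in water) was diluted 1:1 into 100 mM glycylglycine (pH 3.0, 4.0, 5.0) or bistrispropane (pH 6.0-8.0).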

[4] = Table 7, rat binding selectivity, rCTR IC50 / rAmylin-R IC50
[5] = Table 7a (preferred compounds), rat binding selectivity, rCTR IC50 / rAmylin-R IC50
[6] = Table 5, selectivity, hCTR bind IC50 / hAmylin-R bind IC50
[7] = Table 7, human binding selectivity, included for comparison
[8] = Table 7a (preferred compounds), human binding selectivity, included for comparison
[9] = bistrispropane buffer, pH 6.5, read-out: Solubility pH 6.5 Concentration
[10] = bistrispropane buffer, pH 7.5, read-out: Solubility pH 7.5 Concentration
[11] = bistrispropane buffer, pH 6.0, read-out: Solubility pH 6.0 Concentration
[12] = bistrispropane buffer, pH 7.0, read-out: Solubility pH 7.0 Concentration
[13] = bistrispropane buffer, pH 8.0, read-out: Solubility pH 8.0 Concentration
[14] = glycylglycine buffer, pH 3.0, read-out: Solubility pH 3.0 Concentration
[15] = glycylglycine buffer, pH 4.0, read-out: Solubility pH 4.0 Concentration
[16] = glycylglycine buffer, pH 5.0, read-out: Solubility pH 5.0 Concentration
[17] = ratio of rCTR bind IC50 to rAmylin-R bind IC50
[18] = Table 5a, selectivity, hCTR bind IC50 / hAmylin-R bind IC50
[19] = Table 5b, selectivity, hCTR bind IC50 / hAmylin-R bind IC50
[20] = Table 5c, selectivity, hCTR bind IC50 / hAmylin-R bind IC50
[21] = ratio of human calcitonin receptor binding IC50 to human amylin receptor binding IC50

Row | IC50 ([1]; Table 7) | Ratio rCT/rAmylin binding [1, 4] | Ratio rCT/rAmylin binding [1, 5] | Ratio hCT/hAmylin binding [2, 6] | Ratio hCT/hAmylin binding [2, 7] | Ratio hCT/hAmylin binding [2, 8] | IC50 (rat calcitonin receptor) | solubility at 18 h [3, 9] | solubility at 18 h [3, 10] | solubility at 18 h [3, 11] | solubility at 18 h [3, 12] | solubility at 18 h [3, 13] | solubility at 18 h [3, 14] | solubility at 18 h [3, 15] | solubility at 18 h [3, 16] | Ratio rCT/rAmylin binding [1, 17] | Ratio hCT/hAmylin binding [2, 18] | Ratio hCT/hAmylin binding [2, 19] | Ratio hCT/hAmylin binding [2, 20] | Ratio hCT/hAmylin binding [2, 21] | Structure (SMILES)
1 | 0.152 nM | 10.6 | 10.6 | 0.4 | 0.4 | 0.4 | 1.61 nM | ≥ 200 µM | ≥ 200 µM | ≥ 200 µM | ≥ 200 µM | ≥ 200 µM | ≥ 200 µM | ≥ 200 µM | ≥ 200 µM |  |  |  |  |  | CC[C@H](C)[C@H](NC(=O)[C@H](C)NC(=O)CNC(=O)[C@H](Cc1ccccc1)NC(=O)[C@H](CC(N)=O)NC(=O)[C@@H]1CCCN1C(=O)[C@H](CO)NC(=O)[C@H](CO)NC(=O)[C@H](Cc1c[nH]cn1)NC(=O)[C@H](CCCNC(=N)N)NC(=O)[C@H](CC(C)C)NC(=O)[C@H](Cc1ccccc1)NC(=O)[C@H](CCC(=O)O)NC(=O)[C@H](C)NC(=O)[C@H](CC(C)C)NC(=O)[C@H](CCCNC(=N)N)NC(=O)[C@H](CCC(N)=O)NC(=O)[C@@H](NC(=O)[C@H](C)NC(=O)[C@@H]1CSSC[C@H](NC(=O)[C@@H](N)CCCCNC(=O)CC[C@H](NC(=O)CC[C@H](NC(=O)CCCCCCCCCCCCCCCCCCC(=O)O)C(=O)O)C(=O)O)C(=O)N[C@@H](CC(N)=O)C(=O)N[C@@H]([C@@H](C)O)C(=O)N[C@@H](C)C(=O)N[C@@H]([C@@H](C)O)C(=O)N1)[C@@H](C)O)C(=O)N1CCC[C@H]1C(=O)N[C@@H](CO)C(=O)N[C@@H](CO)C(=O)N[C@H](C(=O)N[C@@H](CC(N)=O)C(=O)N[C@H](C(=O)NCC(=O)N1CCC[C@H]1C(=O)N[C@@H](CCC(=O)O)C(=O)N[C@H](C(=O)N1CCC[C@H]1C(N)=O)[C@@H](C)O)C(C)C)[C@@H](C)O [Example 125] (H-K([γGlu-γGlu-C20 diacid])CNTATCATQRLAEFLRHSSPNFGAIPSSTNVGPETP-NH2; disulfide 2-7 (inferred); N-terminus assumed)
2 | 0.172 nM | 85.4 | 85.4 | 51.6 | 51.6 | 51.6 | 14.7 nM | ≥ 200 µM | ≥ 200 µM | ≥ 200 µM | ≥ 200 µM | 178 µM (≈ 786 µg/mL) | ≥ 200 µM | ≥ 200 µM | ≥ 200 µM | 85.4 | 51.6 | 51.6 | 51.6 | 51.6 | CC[C@H](C)[C@H](NC(=O)[C@H](C)NC(=O)CNC(=O)[C@H](Cc1ccccc1)NC(=O)[C@H](CC(N)=O)NC(=O)[C@@H]1CCCN1C(=O)[C@H](CO)NC(=O)[C@H](CO)NC(=O)[C@H](Cc1c[nH]cn1)NC(=O)[C@H](CCCNC(=N)N)NC(=O)[C@H](CC(C)C)NC(=O)[C@H](Cc1ccccc1)NC(=O)[C@H](Cc1c[nH]cn1)NC(=O)[C@H](C)NC(=O)[C@H](CC(C)C)NC(=O)[C@H](CCCNC(=N)N)NC(=O)[C@H](CCC(N)=O)NC(=O)[C@@H](NC(=O)[C@H](C)NC(=O)[C@@H]1CSSC[C@H](NC(=O)[C@@H](N)CCCCNC(=O)CC[C@H](NC(=O)CCCCCCCCCCCCCCCCCCC(=O)O)C(=O)O)C(=O)N[C@@H](CC(N)=O)C(=O)N[C@@H]([C@@H](C)O)C(=O)N[C@@H](C)C(=O)N[C@@H]([C@@H](C)O)C(=O)N1)[C@@H](C)O)C(=O)N1CCC[C@H]1C(=O)N[C@@H](CO)C(=O)N[C@@H](CO)C(=O)N[C@H](C(=O)N[C@@H](CC(N)=O)C(=O)N[C@H](C(=O)NCC(=O)N1CCC[C@H]1C(=O)N[C@@H](CC(N)=O)C(=O)N[C@H](C(=O)N[C@@H](Cc1ccc(O)cc1)C(N)=O)[C@@H](C)O)C(C)C)[C@@H](C)O [Example 67] (H-K([γGlu-C20 diacid])CNTATCATQRLAHFLRHSSPNFGAIPSSTNVGPNTY-NH2; disulfide 2-7 (inferred); N-terminus assumed)
3 | 0.125 nM | 72.4 | 72.4 | 24.8 | 24.8 | 24.8 | 9.05 nM | ≥ 200 µM | ≥ 200 µM | ≥ 200 µM | ≥ 200 µM | 180 µM (≈ 791 µg/mL) | ≥ 200 µM | ≥ 200 µM | ≥ 200 µM | 72.4 | 24.8 | 24.8 | 24.8 | 24.8 | CC[C@H](C)[C@H](NC(=O)[C@H](C)NC(=O)CNC(=O)[C@H](Cc1ccccc1)NC(=O)[C@H](CC(N)=O)NC(=O)[C@@H]1CCCN1C(=O)[C@H](CO)NC(=O)[C@H](CO)NC(=O)[C@H](Cc1c[nH]cn1)NC(=O)[C@H](CCCNC(=N)N)NC(=O)[C@H](CC(C)C)NC(=O)[C@H](Cc1ccccc1)NC(=O)[C@H](Cc1c[nH]cn1)NC(=O)[C@H](C)NC(=O)[C@H](CC(C)C)NC(=O)[C@H](CCCNC(=N)N)NC(=O)[C@H](CCC(N)=O)NC(=O)[C@@H](NC(=O)[C@H](C)NC(=O)[C@@H]1CSSC[C@H](NC(=O)[C@@H](N)CCCCNC(=O)CC[C@H](NC(=O)CCCCCCCCCCCCCCCCCCC(=O)O)C(=O)O)C(=O)N[C@@H](CC(N)=O)C(=O)N[C@@H]([C@@H](C)O)C(=O)N[C@@H](C)C(=O)N[C@@H]([C@@H](C)O)C(=O)N1)[C@@H](C)O)C(=O)N1CCC[C@H]1C(=O)N[C@@H](CO)C(=O)N[C@@H](CO)C(=O)N[C@H](C(=O)N1CCC[C@H]1C(=O)N[C@H](C(=O)NCC(=O)N1CCC[C@H]1C(=O)N[C@@H](CC(N)=O)C(=O)N[C@H](C(=O)N[C@@H](Cc1ccc(O)cc1)C(N)=O)[C@@H](C)O)C(C)C)[C@@H](C)O [Example 116] (H-K([γGlu-C20 diacid])CNTATCATQRLAHFLRHSSPNFGAIPSSTPVGPNTY-NH2; disulfide 2-7)
